Source: US20240042050A1, “ANTI-HER2 IMMUNOCONJUGATES, AND USES THEREOF” (BOLT BIOTHERAPEUTICS, INC., priority 2020, published 2024)
pEC50: −log10 of the molar value.

Key:
human TLR8 = biological target: T1, human TLR8 (Homo sapiens, UniProt Q9NR97); test: HEK Reporter Assay, HEK293 reporter cells expressing human TLR8; type: cell-based; details: HEK293 NFKB reporter cells expressing human TLR8; read-out: HEK293 hTLR8 EC50
T1 construct: host or cells: HEK293 NF-kB reporter cells
T1 sequence (Q9NR97 27-1041): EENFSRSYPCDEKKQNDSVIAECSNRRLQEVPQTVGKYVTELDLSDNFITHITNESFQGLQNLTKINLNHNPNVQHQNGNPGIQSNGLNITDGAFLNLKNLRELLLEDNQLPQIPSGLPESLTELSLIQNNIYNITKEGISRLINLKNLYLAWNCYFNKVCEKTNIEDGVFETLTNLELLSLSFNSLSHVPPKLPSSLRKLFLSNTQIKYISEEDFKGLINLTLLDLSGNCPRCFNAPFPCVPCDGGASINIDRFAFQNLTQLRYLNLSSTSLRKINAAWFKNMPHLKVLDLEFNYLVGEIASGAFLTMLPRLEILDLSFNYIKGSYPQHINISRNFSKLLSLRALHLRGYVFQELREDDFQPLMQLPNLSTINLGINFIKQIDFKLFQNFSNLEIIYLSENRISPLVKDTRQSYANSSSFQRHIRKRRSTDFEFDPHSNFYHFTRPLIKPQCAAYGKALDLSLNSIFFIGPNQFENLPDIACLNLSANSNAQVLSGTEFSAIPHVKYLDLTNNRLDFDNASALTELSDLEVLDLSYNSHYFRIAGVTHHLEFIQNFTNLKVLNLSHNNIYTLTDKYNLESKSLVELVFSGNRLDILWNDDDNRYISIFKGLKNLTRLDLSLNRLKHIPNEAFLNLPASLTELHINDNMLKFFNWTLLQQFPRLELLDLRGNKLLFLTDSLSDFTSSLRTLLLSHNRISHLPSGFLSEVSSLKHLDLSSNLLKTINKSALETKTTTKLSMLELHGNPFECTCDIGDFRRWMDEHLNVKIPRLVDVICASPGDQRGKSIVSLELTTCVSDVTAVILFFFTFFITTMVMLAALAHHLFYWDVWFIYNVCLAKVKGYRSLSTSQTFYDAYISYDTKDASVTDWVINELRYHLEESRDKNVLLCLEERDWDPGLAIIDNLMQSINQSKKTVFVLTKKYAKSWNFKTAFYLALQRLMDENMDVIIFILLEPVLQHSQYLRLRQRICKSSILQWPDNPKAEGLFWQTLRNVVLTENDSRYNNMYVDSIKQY
Protocol: (§1) Each compound was synthesized, purified, and characterized by mass spectrometry and shown to have the mass indicated. Additional experimental procedures are found in the Examples. Activity against HEK293 NFKB reporter cells expressing human TLR7 or human TLR8 was measured according to Example 202.
(§2) Example 202 HEK Reporter Assay
(§3) HEK293 reporter cells expressing human TLR7 or human TLR8 were purchased from Invivogen and vendor protocols were followed for cellular propagation and experimentation. Briefly, cells were grown to 80-85% confluence at 5% CO2 in DMEM supplemented with 10% FBS, Zeocin, and Blasticidin. Cells were then seeded in 96-well flat plates at 4×10^4 cells/well with substrate containing HEK detection medium and immunostimulatory molecules.

human TLR7 = biological target: T2, human TLR7 (Homo sapiens, UniProt Q9NYK1); test: HEK Reporter Assay, HEK293 reporter cells expressing human TLR7; type: cell-based; details: HEK293 NFKB reporter cells expressing human TLR7; read-out: HEK293 hTLR7 EC50
T2 construct: host or cells: HEK293 NF-kB reporter cells
T2 sequence (Q9NYK1 27-1049): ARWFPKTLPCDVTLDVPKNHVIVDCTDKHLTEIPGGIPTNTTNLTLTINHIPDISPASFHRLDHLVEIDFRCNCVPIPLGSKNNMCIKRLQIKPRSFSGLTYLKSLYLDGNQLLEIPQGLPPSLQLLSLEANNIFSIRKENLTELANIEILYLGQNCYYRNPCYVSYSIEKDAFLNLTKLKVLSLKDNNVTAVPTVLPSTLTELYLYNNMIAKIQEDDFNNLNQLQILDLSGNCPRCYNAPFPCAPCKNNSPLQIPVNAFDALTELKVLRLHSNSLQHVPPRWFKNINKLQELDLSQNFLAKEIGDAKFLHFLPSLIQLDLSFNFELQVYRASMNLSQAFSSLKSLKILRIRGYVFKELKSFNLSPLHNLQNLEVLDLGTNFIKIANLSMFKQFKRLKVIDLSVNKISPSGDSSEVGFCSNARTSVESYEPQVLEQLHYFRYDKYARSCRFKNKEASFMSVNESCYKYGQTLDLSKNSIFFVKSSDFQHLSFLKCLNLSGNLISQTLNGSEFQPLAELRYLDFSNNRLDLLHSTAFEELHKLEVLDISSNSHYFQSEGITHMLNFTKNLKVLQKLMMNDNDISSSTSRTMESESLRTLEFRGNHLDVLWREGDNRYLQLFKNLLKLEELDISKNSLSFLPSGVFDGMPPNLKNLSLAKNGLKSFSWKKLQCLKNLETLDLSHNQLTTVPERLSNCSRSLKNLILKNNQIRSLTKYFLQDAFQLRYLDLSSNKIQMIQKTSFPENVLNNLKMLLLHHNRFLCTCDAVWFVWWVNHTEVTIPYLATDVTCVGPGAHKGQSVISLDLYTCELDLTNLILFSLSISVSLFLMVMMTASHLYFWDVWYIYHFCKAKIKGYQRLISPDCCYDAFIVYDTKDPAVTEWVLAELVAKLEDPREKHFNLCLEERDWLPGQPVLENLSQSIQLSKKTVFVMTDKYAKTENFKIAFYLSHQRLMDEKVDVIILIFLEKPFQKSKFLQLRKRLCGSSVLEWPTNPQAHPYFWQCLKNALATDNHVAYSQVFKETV
Protocol: as §1, §2, §3

| pEC50 (human TLR8) | pEC50 (human TLR7) | SMILES |
| --- | --- | --- |
| 6.09 |  | CCCN(OCCO)C(=O)C1=Cc2ccc(-c3cccc(S(=O)(=O)N4CC(CN)C4)c3)cc2N=C(N)C1 [PhBz-25] |
| 6.37 | 5.45 | CCCN(CCO)C(=O)C1=Cc2ccc(-c3cccc(S(=O)(=O)N4CC(CNC(=O)OC(C)(C)C)C4)c3)cc2N=C(N)C1 [PhBz-21] |
| 5.97 | 5.29 | CCCN(CCCCO)C(=O)C1=Cc2ccc(-c3cccc(S(=O)(=O)N4CC(CNC(=O)OC(C)(C)C)C4)c3)cc2N=C(N)C1 [PhBz-9] |
